Test results published in patent publication US12539336B2, “Antibody, linkers, payload, conjugates and applications thereof” (GeneQuantum Healthcare (Suzhou) Co., Ltd., priority 2022, dated 2026).

How the values were obtained:
[1] = system: Trop2-positive cells BxPC-3 and Trop2-negative HepG2 cells; test: Bystander killing in BxPC-3/HepG2 co-culture assay (BxPC-3:HepG2=2:1); format: cell-based, human; conditions: effect example 1.3, conclusion
Method: (§1) A negative control group was set: 3 mL of 45% RPMI-1640+45% DMEM+10% FBS medium was added to each well. After the treatment, the cells were moved to the incubator and incubated for 96 h. After the incubation, cells were digested, and washed once with 1×PBS, then transferred to a flow tube, and centrifuged at 2000 rpm for 3 min. The supernatant was then discarded, and the cell amount and cell viability were detected. […] The cells were washed with 1×PBS, the supernatant was discarded after centrifugation, 200 μL of 5 μg/mL human IgG Fc antibody was added, and the resulting cells were continued to incubate at 4° C. for 30 min after mixing. Finally, the cells were washed with 1×PBS, the supernatant was discarded after centrifugation, and the cells were resuspended in PBS, detected by flow cytometry and analyzed by FlowJo software.

[2] = system: Trop2-positive cells BxPC-3 and Trop2-negative cells HepG2; test: Bystander killing in BxPC-3/HepG2 co-culture assay (BxPC-3:HepG2=4:1); format: cell-based, human; conditions: effect example 1.1, conclusion
Method: as §1

Substance: DS1062a
- bystander killing effect [1]: had bystander killing effects
- bystander killing effect [2]: had bystander killing effects
